Measurements: patent US20160262894A1, “TISSUE REPAIR DEVICES AND SCAFFOLDS” (priority 2013, published 2016)

Experiments:
[1] = test system: adenosine A2A knockout (A2AKO) mice; test: in vivo bone formation by MicroCT in adenosine A2A knockout (A2AKO) mice, coated βTCP-HA scaffolds; conditions: 4 weeks post-surgery, CGS21680 10 mM
Source text: The remaining scaffold is shown in blue, and the new bone formation is shown in red.

3 mm calvaria defect [2] = conditions: application at the site of the bone defect
Source text: In vivo testing in mice: The 3-D scaffolds will be evaluated in a murine model using a 3 mm calvaria defect model.

3 mm calvaria defect [3] = conditions: murine model of calvarial bone regeneration; background statement; cited from earlier work

Compound | resorption of scaffolds ([1]; compared with dipyridamole-coated scaffolds) | new bone growth at the site of a bone defect (3 mm calvaria defect [2]) | new bone formation ([1]; collagen-coated βTCP-HA scaffolds, Dipyridamole 100 μM) | bone regeneration (3 mm calvaria defect [3])
CCNC(=O)[C@H]1O[C@@H](n2cnc3c(N)nc(NCCc4ccc(CCC(=O)O)cc4)nc32)[C@H](O)[C@@H]1O [CGS21680] | greater | – | – | –
OCCN(CCO)c1nc(N2CCCCC2)c2nc(N(CCO)CCO)nc(N3CCCCC3)c2n1 [dipyridamole] | – | promotes new bone growth | did not differ from that induced in saline- or CGS21680-coated surfaces | exponentially stimulates bone regeneration
